Assay results as given in patent US20190225650A1, “PEPTIDOMIMETIC MACROCYCLES AND USE THEREOF IN REGULATING HIF1ALPHA” (AILERON THERAPEUTICS, INC., priority 2013, published 2019).
Each block holds one molecule with its values, some of them ahead of it. Bridge positions count the residues as written; N and C are the ends. Square brackets hold non-standard residues; d marks the D form. Peptide text beside a SMILES is read from it. R8 = C=CCCCCCC[C@@](C)(N)C(=O)O; S5 = C=CCCC[C@](C)(N)C(=O)O; Nle = CCCC[C@H](N)C(=O)O

Key:
[1] = target: T1, flag-tagged HIF1α (AA 786-826) / His6-tagged p300 (AA 323-423) complex (Homo sapiens, UniProt Q09472); assay: HIF1α p300 displacement assay (TR FRET, +CHAPS); format: binding; conditions: read-out: IC50 (nM) (HIF1α_p300 Displacement + CHAPS)
T1 construct: His6-tagged p300 (AA 323-423); made in house; host or cells: E. coli (pETDuet vector)
T1 sequence (Q09472 323-423, one chain of several): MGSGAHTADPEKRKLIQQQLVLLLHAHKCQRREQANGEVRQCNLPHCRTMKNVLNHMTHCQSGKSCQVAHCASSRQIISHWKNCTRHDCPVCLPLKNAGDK
In short: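 The co-expressed flag-HIF1α (786-826)/His6-p300 (323-423) complex, purified from E. coli with 0.1 mM ZnSO4, was used at 300 nM final with competitor peptides for 1 h at room temperature. Buffer was 150 mM NaCl, 20 mM HEPES pH 7.4, 7.5 mM CHAPS and 1 mM DTT. Anti-Flag-K (0.5 μM) and anti-His-D2 (4 nM) were then added for 2 h, and IC50s were fitted from the TR-FRET ratio.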

[2] = tested on: HRE-bla ME-180 cells; assay: Reporter gene assay (HRE-bla ME-180 HIF reporter, GeneBLAzer); format: cell-based, human; conditions: for EC50: 24 hour normoxia
In short: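 A FRET β-lactamase readout of HIF transcription was used. After compound treatment in 0.3% DMSO/media under normoxic conditions, 20 μl of 6× LiveBLAzer-FRET B/G (CCF4-AM) substrate was added. Plates sat 3 hr at room temperature in the dark and were read at 409 Ex/460Em and 409Ex/530Em on a Synergy 2. Inhibition was compared against DMSO vehicle controls, with chetomin as positive control.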

[3] = tested on: HRE-bla ME-180 cells; assay: Cell proliferation assay (viability, MTT, 1% FBS); format: cell-based, human
In short: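 ME-180 cells (2×10^4/well) in Opti-MEM with 1% FBS were pretreated 16 h under normoxia (21% O2), vehicle 0.5% DMSO final. Incubation then continued under normoxia or hypoxia (1% O2); viable cells quantified by MTT-type CellTiter 96 assay.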

[4] = target: T2, His6-tagged p300 (AA 323-423) (UniProt Q09472 323-423); assay: TR-FRET HIF1a/p300 displacement; grade = IC50 >700 nM
T2 construct: range 323-423; also called p300-CH; not shown: His6 tag
T2 sequence (Q09472 323-423 limits assumed): as the sequence (Q09472 323-423, one chain of several) above
Experimental: The ability of peptides to displace HIF1α c-terminal trans-activation domain from p300-CH was measured by a TR FRET assay. […] The complex was diluted to 300 nM final in complete assay media and competitor peptides were added. The complete assay media contained 150 mM NaCl (Sigma +S5150 or equivalent), 20 mM HEPES pH 7.4 (Boston Bioproducts, Ashland, Mass.; #BB-2076), 7.5 mM CHAPS (Thermo #28300 or equivalent), and 1 mM DTT. Protein and peptide were incubated at room temperature for 1 hour before the addition of anti-Flag-K and anti-6×HIS-D2 (CisBio, Bedford Mass.) HTRF reconstitution buffer (50 mM Phosphate pH 7, 0.8 Potassium Flouride, BSA 0.2%)¹ to a final concentration of 0.5 μM and 4 nM respectively. The reaction continued for an additional two hours at room temperature. The reaction was read on a TECAN F500 plate reader with settings recommended by CisBio. The ratio of donor to acceptor fluorescence was calculated. The resulting data was analyzed with Graphpad Prism 5.0. IC50 values were calculated for both proteins using the One Site Fit-LogIC50 equation and presented in the column “IC₅₀ (nM) (HIF1α_p300 Displacement+CHAPS)” of Table 6. ¹ Cisbio USA, Bedford, Mass.; 61HISDLB (lot 007A), 61FG2KLB (024A), HTRF Buffer (62RB3RDF)

- IC50 [1]: 400 to 700 nM
- EC50 [2]: 5 to 15 µM
Molecule: CC[C@H](C)[C@H](NC(=O)[C@H](Cc1ccccc1)NC(C)=O)C(=O)N[C@@H](CC(=O)O)C(=O)N[C@@H](CCC(=O)O)C(=O)N[C@]1(C)CCCCCCC=CCCC[C@@](C)(C(=O)N[C@@H](CCC(=O)O)C(=O)N[C@@H](CCSC)C(=O)N[C@@H](C)C(=O)N[C@@H](CC(C)C)C(N)=O)NC(=O)[C@H](C(C)C)NC(=O)[C@H](CC(C)C)NC(=O)[C@H](CO)NC(=O)[C@H](CCSC)NC(=O)[C@H](CC(C)C)NC(=O)[C@H](C(C)C)NC1=O [SP-177] (Ac-FIDE[R8]VLMSLV[S5]EMAL-NH2; staple 5-12)
- 18 h Avg % max inhibition at top conc (HIF Rptr-24 hrs normoxia) (μM) [2]: ++++ (≥50: ++++)
- Viability 1% FBS AVG (MTT V3-24 hr Normoxia) (μM) [3]: +++ (≤15 but <30: +++)

- IC50 [1]: 200 to 400 nM
- EC50 [2]: > 30 µM
Molecule: CCCC[C@H](NC(=O)[C@H](CCC(=O)O)NC(=O)[C@@H](NC(=O)[C@@H](NC(=O)[C@H](CC(C)C)NC(=O)[C@]1(C)CCCC=CCCC[C@](C)(NC(=O)[C@H](CCCNC(=N)N)NC(=O)[C@H](CC(=O)O)NC(=O)[C@@H](NC(=O)[C@H](Cc2ccccc2)NC(C)=O)[C@@H](C)CC)C(=O)N[C@@H](C(C)C)C(=O)N[C@@H](CC(C)C)C(=O)N[C@@H](CCCC)C(=O)N1)C(C)C)[C@@H](C)CC)C(=O)N[C@@H](C)C(=O)N[C@@H](CC(C)C)C(N)=O [SP-156] (Ac-FIDR[S5]VL[Nle][S5]LVIE[Nle]AL-NH2; staple 5-9)
- 18 h Avg % max inhibition at top conc (HIF Rptr-24 hrs normoxia) (μM) [2]: ++ (≤10 but <25: ++)
- Viability 1% FBS AVG (MTT V3-24 hr Normoxia) (μM) [3]: ++++ (≥30: ++++)

- IC50 [1]: 400 to 700 nM
- EC50 [2]: 5 to 15 µM
Molecule: CC[C@H](C)[C@H](NC(=O)[C@H](Cc1ccccc1)NC(C)=O)C(=O)N[C@@H](CC(=O)O)C(=O)N[C@@H](CCC(=O)O)C(=O)N[C@@H](CCC(=O)O)C(=O)N[C@H](C(=O)N[C@@H](CC(C)C)C(=O)N[C@@H](CCSC)C(=O)N[C@@]1(C)CCCC=CCCC[C@@](C)(C(=O)N[C@@H](CCSC)C(=O)N[C@@H](C)C(=O)N[C@@H](CC(C)C)C(=O)N[C@@H](CC(=O)O)C(=O)N[C@@H](CCCNC(=N)N)C(N)=O)NC(=O)[C@H]([C@@H](C)CC)NC(=O)[C@H](C(C)C)NC(=O)[C@H](CC(C)C)NC1=O)C(C)C [SP-281] (Ac-FIDEEVLM[S5]LVI[S5]MALDR-NH2; staple 9-13)
- 18 h Avg % max inhibition at top conc (HIF Rptr-24 hrs normoxia) (μM) [2]: ++++ (≥50: ++++)
- Viability 1% FBS AVG (MTT V3-24 hr Normoxia) (μM) [3]: ++++ (≥30: ++++)

- IC50 [4]: > 700 nM
B1: SP-9 (peptide)
peptide: Ac-AIDEEVL[Nle][S5]LVI[S5][Nle]ALDRI-NH2
modifications: staple 9-13
SMILES: CCCC[C@H](NC(=O)[C@H](CC(C)C)NC(=O)[C@@H](NC(=O)[C@H](CCC(=O)O)NC(=O)[C@H](CCC(=O)O)NC(=O)[C@H](CC(=O)O)NC(=O)[C@@H](NC(=O)[C@H](C)NC(C)=O)[C@@H](C)CC)C(C)C)C(=O)N[C@@]1(C)CCCC=CCCC[C@@](C)(C(=O)N[C@@H](CCCC)C(=O)N[C@@H](C)C(=O)N[C@@H](CC(C)C)C(=O)N[C@@H](CC(=O)O)C(=O)N[C@@H](CCCNC(=N)N)C(=O)N[C@H](C(N)=O)[C@@H](C)CC)NC(=O)[C@H]([C@@H](C)CC)NC(=O)[C@H](C(C)C)NC(=O)[C@H](CC(C)C)NC1=O

- IC50 [4]: > 700 nM
B2: SP-10 (peptide)
peptide: Ac-FADEEVL[Nle][S5]LVI[S5][Nle]ALDRI-NH2
modifications: staple 9-13
SMILES: CCCC[C@H](NC(=O)[C@H](CC(C)C)NC(=O)[C@@H](NC(=O)[C@H](CCC(=O)O)NC(=O)[C@H](CCC(=O)O)NC(=O)[C@H](CC(=O)O)NC(=O)[C@H](C)NC(=O)[C@H](Cc1ccccc1)NC(C)=O)C(C)C)C(=O)N[C@@]1(C)CCCC=CCCC[C@@](C)(C(=O)N[C@@H](CCCC)C(=O)N[C@@H](C)C(=O)N[C@@H](CC(C)C)C(=O)N[C@@H](CC(=O)O)C(=O)N[C@@H](CCCNC(=N)N)C(=O)N[C@H](C(N)=O)[C@@H](C)CC)NC(=O)[C@H]([C@@H](C)CC)NC(=O)[C@H](C(C)C)NC(=O)[C@H](CC(C)C)NC1=O

- IC50 [4]: > 700 nM
B3: SP-15 (peptide)
peptide: Ac-FIDEEVA[Nle][S5]LVI[S5][Nle]ALDRI-NH2
modifications: staple 9-13
SMILES: CCCC[C@H](NC(=O)[C@H](C)NC(=O)[C@@H](NC(=O)[C@H](CCC(=O)O)NC(=O)[C@H](CCC(=O)O)NC(=O)[C@H](CC(=O)O)NC(=O)[C@@H](NC(=O)[C@H](Cc1ccccc1)NC(C)=O)[C@@H](C)CC)C(C)C)C(=O)N[C@@]1(C)CCCC=CCCC[C@@](C)(C(=O)N[C@@H](CCCC)C(=O)N[C@@H](C)C(=O)N[C@@H](CC(C)C)C(=O)N[C@@H](CC(=O)O)C(=O)N[C@@H](CCCNC(=N)N)C(=O)N[C@H](C(N)=O)[C@@H](C)CC)NC(=O)[C@H]([C@@H](C)CC)NC(=O)[C@H](C(C)C)NC(=O)[C@H](CC(C)C)NC1=O

- IC50 [4]: > 700 nM
B4: SP-12 (peptide)
peptide: Ac-FIDAEVL[Nle][S5]LVI[S5][Nle]ALDRI-NH2
modifications: staple 9-13
SMILES: CCCC[C@H](NC(=O)[C@H](CC(C)C)NC(=O)[C@@H](NC(=O)[C@H](CCC(=O)O)NC(=O)[C@H](C)NC(=O)[C@H](CC(=O)O)NC(=O)[C@@H](NC(=O)[C@H](Cc1ccccc1)NC(C)=O)[C@@H](C)CC)C(C)C)C(=O)N[C@@]1(C)CCCC=CCCC[C@@](C)(C(=O)N[C@@H](CCCC)C(=O)N[C@@H](C)C(=O)N[C@@H](CC(C)C)C(=O)N[C@@H](CC(=O)O)C(=O)N[C@@H](CCCNC(=N)N)C(=O)N[C@H](C(N)=O)[C@@H](C)CC)NC(=O)[C@H]([C@@H](C)CC)NC(=O)[C@H](C(C)C)NC(=O)[C@H](CC(C)C)NC1=O

- IC50 [4]: > 700 nM
B5: SP-11 (peptide)
peptide: Ac-FIAEEVL[Nle][S5]LVI[S5][Nle]ALDRI-NH2
modifications: staple 9-13
SMILES: CCCC[C@H](NC(=O)[C@H](CC(C)C)NC(=O)[C@@H](NC(=O)[C@H](CCC(=O)O)NC(=O)[C@H](CCC(=O)O)NC(=O)[C@H](C)NC(=O)[C@@H](NC(=O)[C@H](Cc1ccccc1)NC(C)=O)[C@@H](C)CC)C(C)C)C(=O)N[C@@]1(C)CCCC=CCCC[C@@](C)(C(=O)N[C@@H](CCCC)C(=O)N[C@@H](C)C(=O)N[C@@H](CC(C)C)C(=O)N[C@@H](CC(=O)O)C(=O)N[C@@H](CCCNC(=N)N)C(=O)N[C@H](C(N)=O)[C@@H](C)CC)NC(=O)[C@H]([C@@H](C)CC)NC(=O)[C@H](C(C)C)NC(=O)[C@H](CC(C)C)NC1=O

- IC50 [4]: > 700 nM
B6: SP-14 (peptide)
peptide: Ac-FIDEEAL[Nle][S5]LVI[S5][Nle]ALDRI-NH2
modifications: staple 9-13
SMILES: CCCC[C@H](NC(=O)[C@H](CC(C)C)NC(=O)[C@H](C)NC(=O)[C@H](CCC(=O)O)NC(=O)[C@H](CCC(=O)O)NC(=O)[C@H](CC(=O)O)NC(=O)[C@@H](NC(=O)[C@H](Cc1ccccc1)NC(C)=O)[C@@H](C)CC)C(=O)N[C@@]1(C)CCCC=CCCC[C@@](C)(C(=O)N[C@@H](CCCC)C(=O)N[C@@H](C)C(=O)N[C@@H](CC(C)C)C(=O)N[C@@H](CC(=O)O)C(=O)N[C@@H](CCCNC(=N)N)C(=O)N[C@H](C(N)=O)[C@@H](C)CC)NC(=O)[C@H]([C@@H](C)CC)NC(=O)[C@H](C(C)C)NC(=O)[C@H](CC(C)C)NC1=O
